Data on 2 molecules can be found in patent US9956199B2, “Chromane-like cyclic prenylflavonoids for the medical intervention in neurological disorders” (priority 2011, dated 2018).

“Also recorded” adds a separate entry of the source.

One assay relates to MEF E16 cells. The assay is described as follows: immunocytochemical staining for DCX and Map2ab in MEF cultures (neuronal differentiation). To be noted: 7 days; for number of DCX positive cells / number of DCX/Map2ab double positive cells: Neurobasal plus 1% FCS, 10 μM; for number of DCX positive cells: FIG. 3A; for number of DCX/Map2ab double positive cells: FIG. 3B. The class given is cell-based, mouse. How it is done:
Following the results from the Luciferase assay described in Example 17, the inventors examined the ability of compounds according to the invention and reference compounds to promote differentiation of MEF E16 cells, using immunocytochemical staining with DCX and Map2ab antibodies.
Compound 1a at 10 and 100 μM was analyzed for its effect on the expression of the neuronal specific markers DCX and Map2ab using primary fetal mouse brain derived cells stimulated in DMEM-KO media.
Mouse embryonic day 16 forebrain cells were prepared as described in Example 17. Before seeding the cells, glass-coverslips were coated and prepared. Glass-coverslips (13 mm) (Menzel GmbH, Braunschweig, Germany) were incubated in 1 M HCl at 65° C. overnight and stored in isopropanol until further use. Coverslips were put into 24-well test plates and air-dried. Subsequently coverslips were incubated for 1 h with 100 μg/ml Poly-L-ornithin solution at 37° C. After washing three times with sterile water coverslips were incubated with 5 μg/ml Laminin solution for 2 h. Immediately after removal of the Laminin solution cells were seeded (40.000 cells/well) in DMEM-KO plus supplement or in NB-B27 plus 1% FCS medium. One day later, cells had attached to the substrate. Cells were stimulated with the above-mentioned substances (in DMEM-KO plus supplement medium: 10 μM and 100 μM; in NB-B27 plus 1% FCS medium: 10 μM) for 3 or 7 days. In the 7 day group, medium including the substances was replaced after three days. Cultures were maintained at 37° C. in a humidified incubator with 5% CO2.
Cells were fixed with phosphate-buffered 4% paraformaldehyde (Sigma-Aldrich, Taufkirchen, Germany). […] The specimens were incubated overnight at 4° C. with the primary antibodies at the following dilutions in FSGB: rabbit anti Doublecortin (DCX) 1:500 (NEB, Frankfurt, Germany) and mouse anti-Map 2a+2b 1:400 (Sigma-Aldrich, Taufkirchen, Germany). After washing three times with FSGB, cells were incubated with the species-specific secondary antibodies, which were conjugated to fluorochromes, for 2 hours in the dark at room temperature. To remove unbound secondary antibodies, cells were washed again with PBS. Nuclear counterstaining was performed with 4′,6′-diamidino-2-phenylindole dihydrochloride hydrate (DAPI) at […] (Sigma Aldrich, Taufkirchen, Germany). Finally, cells were washed again three times with PBS and mounted on microscope slides using Prolong Antifade reagent (Invitrogen, Oreg., USA).
The immunostainings were examined using Olympus IX81 inverted research microscope and the software Volocity 5.3.1. To quantify the number of cells, five indiscriminately chosen visual fields per coverslip were selected under a focus of 40 times. The total number of cells (DAPI positive cells), the number of DCX positive, Map2ab positive, and DCX/Map2ab double positive cells was determined.

A further assay has as its system PC12 cells. The assay is described as follows: PC12 cobalt-chloride stress test, LDH release. In kind it is cell-based, rat. To be noted: CoCl2 300 μM, 24 hours; compounds 10 μM, NGF 100 ng/ml; FIG. 7B. The procedure: For the neuroprotection assay PC12 cells were stressed with cobalt chloride 300 μM for 24 hours and the activity of Caspase 3/7 and LDH release were measured. NGF 50 ng/ml was used as a positive control for Caspase 3/7 activity and NGF 100 ng/ml was used as a positive control for LDH release.
For the PC12-CoCl2-Assay PC12 cells were used (ATCC: CRL-1721 ™). These cells were growing in RPMI supplemented with 10% Horse Serum (heat inactivated) (Sigma Aldrich, Taufkirchen, Germany), 5% Fetal Bovine Serum (Lonza, Wuppertal, Germany), 2.5% Penicillin/Streptomycin and Glutamine (PAA, Pasching, Austria) as adherent cultures when the plates are coated with Poly-L-ornithine ([…] in water) for at least one hour at 37° C. For passaging PC12-cells were resuspended with Accutase (PAA, Pasching, Austria) for 10 minutes at 37° C. once a week.
For all experiments cells were plated (quadruplicates) on Poly-L-ornithine-coated 96-well plates at a density of 10^4 cells per well. For Caspase 3/7-measurement cells were seeded in a white 96-well-plate to detect luminescence. As positive-control for neuroprotection Nerve Growth Factor (NGF) (50 ng/ml and 100 ng/ml) was used. To induce hypoxia CoCl2 (300 μM) was added to the cells after 20-24 hours. The control-treatment was compound 1a (ENDF1), compound 1b (ENDF3), compound 3a (ENDF2), ENDF4 or Osajin in the concentrations 1 μM and 10 μM in proliferation-media without CoCl2.
For LDH-release cells were centrifuged at 1050 rpm for 5 minutes. After 24 hours of stimulation, the supernatant was mixed in an equal amount with LDH-substrate and incubated in the dark for 30 minutes. Afterwards stop solution was added and absorbance was measured at 490 nm, the blank-values are subtracted.
Background: LDH in the medium is a marker of cell lysis.

Turning to `COc1cc2c(c(O)c1C(=O)/C=C/c1ccc(O)cc1)C=CC(C)(C)O2` [Compound 1a, (E)-1-(5-hydroxy-7-methoxy-2,2-dimethyl-2H-chromen-6-yl)-3-(4-hydroxyphenyl)prop-2-en-1-one], the “expression of the neuronal specific markers DCX and Map2ab (percentage of positive cells)” value with MEF E16 cells (DMEM-KO medium, 10 and 100 μM, FIG. 2) is “elevated number of DCX positive and of MAP2ab positive cells; also recorded: enhances the expression of the neuronal specific markers DCX and Map2ab”. Besides, in the assay on MEF E16 cells, the “number of DCX positive cells” value is listed as “most vigorous effect”; the “number of DCX/Map2ab double positive cells” value was “highest number of DCX and Map2ab double positive cells”. In addition, in the assay with PC12 cells, the “protection from CoCl2 induced LDH release (cell death)” value is on record as “partially protected; also recorded: slightly decrease the LDH release”.

For `COc1cc2c(c(O)c1C(=O)/C=C/c1ccc(O)cc1)CCC(C)(C)O2` [Compound 1b, (E)-1-(5-hydroxy-7-methoxy-2,2-dimethylchroman-6-yl)-3-(4-hydroxyphenyl)prop-2-en-1-one], in the assay on MEF E16 cells, the “number of DCX positive cells” value is given as “strongly enhanced the number of DCX positive cells”; the “number of DCX/Map2ab double positive cells” value is “highest number of DCX and Map2ab double positive cells”. In addition, the “protection from CoCl2 induced LDH release (cell death)” value in the assay on PC12 cells is “partially protected; also recorded: slightly decrease the LDH release”.
